Data set [1] deals with T1, bovine adrenal 3β-hydroxy-Δ^5-steroid dehydrogenase / 3-keto-Δ^5-steroid isomerase (3βHSD) (Bos taurus, UniProt P14893).
T1 construct: host or cells: bovine adrenal
T1 sequence (P14893 1-373): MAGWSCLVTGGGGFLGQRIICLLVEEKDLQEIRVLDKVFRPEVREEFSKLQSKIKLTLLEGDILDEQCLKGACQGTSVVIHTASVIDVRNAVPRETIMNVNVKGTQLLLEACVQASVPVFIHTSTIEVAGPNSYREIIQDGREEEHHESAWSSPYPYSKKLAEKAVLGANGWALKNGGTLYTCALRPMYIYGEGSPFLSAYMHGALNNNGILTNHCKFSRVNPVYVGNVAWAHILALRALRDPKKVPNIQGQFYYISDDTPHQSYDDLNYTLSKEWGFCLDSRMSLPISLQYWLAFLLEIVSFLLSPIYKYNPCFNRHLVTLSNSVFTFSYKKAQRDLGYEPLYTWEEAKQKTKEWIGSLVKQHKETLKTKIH
The note with it: cited from earlier work.

Data set [2] addresses T2, porcine granulosa cell 3β-hydroxy-Δ^5-steroid dehydrogenase / 3-keto-Δ^5-steroid isomerase (3βHSD) (Sus scrofa, UniProt Q9N119).
T2 construct: host or cells: porcine granulosa cells
T2 sequence (Q9N119 1-373): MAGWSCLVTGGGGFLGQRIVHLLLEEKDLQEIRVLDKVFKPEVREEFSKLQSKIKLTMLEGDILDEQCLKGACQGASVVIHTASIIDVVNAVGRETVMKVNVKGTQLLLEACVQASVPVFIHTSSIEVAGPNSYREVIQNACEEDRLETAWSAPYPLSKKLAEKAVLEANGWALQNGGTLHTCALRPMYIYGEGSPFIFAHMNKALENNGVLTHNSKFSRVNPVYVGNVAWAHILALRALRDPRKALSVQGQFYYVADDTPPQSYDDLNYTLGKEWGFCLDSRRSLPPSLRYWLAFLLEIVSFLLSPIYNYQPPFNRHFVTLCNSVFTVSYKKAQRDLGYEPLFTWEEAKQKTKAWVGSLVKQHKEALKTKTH
Conditions: cited from earlier work.

For data set [3] the following is noted: literature reports; cited from earlier work.
Data set [4] deals with T3, human type 1 5α-reductase (Homo sapiens, UniProt P18405).
T3 sequence (P18405 1-259): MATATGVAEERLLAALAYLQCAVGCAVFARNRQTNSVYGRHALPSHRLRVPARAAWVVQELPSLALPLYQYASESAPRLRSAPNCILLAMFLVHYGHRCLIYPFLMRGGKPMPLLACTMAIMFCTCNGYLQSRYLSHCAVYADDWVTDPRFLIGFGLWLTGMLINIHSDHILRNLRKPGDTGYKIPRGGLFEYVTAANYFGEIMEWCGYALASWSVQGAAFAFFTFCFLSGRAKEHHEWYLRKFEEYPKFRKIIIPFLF
The data set is described as follows: 5α-reductase in vitro inhibitory activity, human type 1.
Description: (§1) Microsomes were prepared by homogenization of the tissue or cells, followed by differential centrifugation of the homogenate. […] Corresponding incubations were carried out with no test compound as a control study.
For type 2 IC50 measurements, assay components except testosterone were preincubated for 20 minutes at pH 6.0, and following the addition of 8nM testosterone the assays were allowed to proceed for 20-40 minutes. The percentage of conversion of testosterone to DHT in the presence of test compounds compared to the corresponding conversion in the control study was estimated using high pressure liquid chromatography (HPLC) with radiochemical detection.

For data set [5], the target named is T4, human type 2 5α-reductase (Homo sapiens, UniProt P31213).
T4 sequence (P31213 1-254): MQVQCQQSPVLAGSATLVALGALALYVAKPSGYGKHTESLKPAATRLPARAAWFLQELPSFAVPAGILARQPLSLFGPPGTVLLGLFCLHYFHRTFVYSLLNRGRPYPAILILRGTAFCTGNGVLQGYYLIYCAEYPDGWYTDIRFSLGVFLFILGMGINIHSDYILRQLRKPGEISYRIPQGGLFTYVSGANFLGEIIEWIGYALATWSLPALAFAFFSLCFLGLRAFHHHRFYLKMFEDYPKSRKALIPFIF
Nature of the data set: 5α-reductase in vitro inhibitory activity, human type 2.

Data set [6] addresses Rat Prostatic 5α-reductase. The data set is described as follows: 5α-reductase in vitro inhibitory activity, rat prostatic. The note with it: read-out: IC50 Rat Prostatic; microsomes derived from prostate tissue from the rat.
Description: as §1
The percentage of conversion of testosterone to DHT in the presence of test compounds compared to the corresponding conversion in the control study was estimated using high pressure liquid chromatography (HPLC) with radiochemical detection.

Each structure is given as a SMILES string. Some results are limits rather than exact numbers.

Take `CCN(CC)C(=O)[C@H]1CC[C@H]2[C@@H]3CC[C@H]4N(C)C(=O)CC[C@]4(C)[C@H]3CC[C@]12C` [Compound 4-MA]: the “inhibition of 3βHSD” value in data set [1] and in data set [2] was “potent inhibition” each time. For the same molecule, the hepatotoxicity entry in data set [3] is reported as “hepatotoxicity”.
Turning to `C[C@]12CC[C@H]3[C@@H](CNC4=CC(=O)CC[C@@]43C)[C@@H]1CC[C@@H]2C(=O)NC(c1ccc(Cl)cc1)c1ccc(Cl)cc1` [Compound 47], the half-maximal inhibitory concentration (IC50) (as a rule, the point on the concentration scale where inhibition reaches its midpoint) is 10 to 100 nM in data set [4], under 10 nM in data set [5] and under 10 nM in data set [6].
Take `Cc1cc(C(C)(C)C)cc(C)c1NC(=O)[C@H]1CC[C@H]2[C@@H]3CNC4=CC(=O)CC[C@]4(C)[C@H]3CC[C@]12C` [Compound 48, 17β-N-(2,6-Dimethyl-4-t-butyl)phenyl-carbamoyl-6-azaandrost-4-en-3-one]: the figures for the IC50 in data set [4], in data set [5] and in data set [6] were under 10 nM, under 10 nM and 10 to 100 nM, respectively.
Consider `CC(C)c1cc(Br)c(NC(=O)[C@H]2CC[C@H]3[C@@H]4CNC5=CC(=O)CC[C@]5(C)[C@H]4CC[C@]23C)c(Br)c1` [Compound 49, 17β-N-(2,6-Dibromo-4-isopropyl)phenyl-carbamoyl-6-azaandrost-4-en-3-one], for which the IC50 in data set [4], in data set [5] and in data set [6] was under 10 nM each time.
With `C[C@]12CC[C@H]3[C@@H](CNC4=CC(=O)CC[C@@]43C)[C@@H]1CC[C@@H]2C(=O)Nc1cc(C(F)(F)F)ccc1C(F)(F)F` [Compound 50, 17β-N-(2,5-Ditrifluoromethyl)phenyl-carbamoyl-6-azaandrost-4-en-3-one], the IC50 in data set [4] is under 10 nM; in data set [5], under 10 nM; in data set [6], 10 to 100 nM.
With `CC(C)(C)C1CCC(NC(=O)[C@H]2CC[C@H]3[C@@H]4CNC5=CC(=O)CC[C@]5(C)[C@H]4CC[C@]23C)CC1` (stereo partly drawn) [Compound 51, 17β-N-(4-t-Butyl)cyclohexyl-carbamoyl-6-azaandrost-4-en-3-one], the figures for the IC50 in data set [4], in data set [5] and in data set [6] were over 100 nM, 10 to 100 nM and over 100 nM, respectively.
`C[C@]12CC[C@H]3[C@@H](CNC4=CC(=O)CC[C@@]43C)[C@@H]1CC[C@@H]2C(=O)Nc1ccccc1Br` [Compound 52, 17β-N-(2-Bromo)phenyl-carbamoyl-6-azaandrost-4-en-3-one]: the IC50 in data set [4] is 10 to 100 nM; in data set [5], under 10 nM; in data set [6], 10 to 100 nM.
Take `C[C@]12CC[C@H]3[C@@H](CNC4=CC(=O)CC[C@@]43C)[C@@H]1CC[C@@H]2C(=O)Nc1ccccc1-c1ccccc1` [Compound 53, 17β-N-(2-Phenyl)phenyl-carbamoyl-6-azaandrost-4-en-3-one]: the IC50 in data set [4] was 10 to 100 nM; in data set [5] it was under 10 nM; in data set [6], under 10 nM.
`CC(C)c1cccc(C(C)C)c1NC(=O)[C@H]1CC[C@H]2[C@@H]3CNC4=CC(=O)C=C[C@]4(C)[C@H]3CC[C@]12C` [Compound 93, 17β-N-(2,6-Di-i-propyl)phenyl-carbamoyl-6-azaandrost-1,4-dien-3-one]: the half-maximal inhibitory concentration (IC50) is 10 to 100 nM in data set [4], under 10 nM in data set [5] and over 100 nM in data set [6].

The record behind these values is patent EP0674651B1, “SUBSTITUTED 6-AZAANDROSTENONES” (priority 1992, dated 1994).
